The target in assay [1] is Macrophage colony-stimulating factor 1 receptor (Homo sapiens, UniProt P07333). The assay can be described thus: Displacement of kinase tracer 236 from recombinant human His-tagged CSF1R cytoplasmic domain (538 to 910 residues) expressed in baculovirus-infected insect cells measured after 5 hrs by TR-FRET based LanthaScreen assay. In general terms: In TR-FRET formats the signal depends on donor and acceptor labels being close together.

Assay [2] concerns the target Vascular endothelial growth factor receptor 2 (Homo sapiens, UniProt P35968). The assay is described as follows: Displacement of kinase tracer 236 from recombinant human His-tagged KDR cytoplasmic domain (789 to 1356 residues) expressed in baculovirus-infected insect cells measured after 5 hrs by TR-FRET based LanthaScreen assay.

The structures appear in SMILES notation. Where only a bound is given, the exact number is not on record here.

Sequence of Macrophage colony-stimulating factor 1 receptor (P07333 whole entry, the tested form may be a part): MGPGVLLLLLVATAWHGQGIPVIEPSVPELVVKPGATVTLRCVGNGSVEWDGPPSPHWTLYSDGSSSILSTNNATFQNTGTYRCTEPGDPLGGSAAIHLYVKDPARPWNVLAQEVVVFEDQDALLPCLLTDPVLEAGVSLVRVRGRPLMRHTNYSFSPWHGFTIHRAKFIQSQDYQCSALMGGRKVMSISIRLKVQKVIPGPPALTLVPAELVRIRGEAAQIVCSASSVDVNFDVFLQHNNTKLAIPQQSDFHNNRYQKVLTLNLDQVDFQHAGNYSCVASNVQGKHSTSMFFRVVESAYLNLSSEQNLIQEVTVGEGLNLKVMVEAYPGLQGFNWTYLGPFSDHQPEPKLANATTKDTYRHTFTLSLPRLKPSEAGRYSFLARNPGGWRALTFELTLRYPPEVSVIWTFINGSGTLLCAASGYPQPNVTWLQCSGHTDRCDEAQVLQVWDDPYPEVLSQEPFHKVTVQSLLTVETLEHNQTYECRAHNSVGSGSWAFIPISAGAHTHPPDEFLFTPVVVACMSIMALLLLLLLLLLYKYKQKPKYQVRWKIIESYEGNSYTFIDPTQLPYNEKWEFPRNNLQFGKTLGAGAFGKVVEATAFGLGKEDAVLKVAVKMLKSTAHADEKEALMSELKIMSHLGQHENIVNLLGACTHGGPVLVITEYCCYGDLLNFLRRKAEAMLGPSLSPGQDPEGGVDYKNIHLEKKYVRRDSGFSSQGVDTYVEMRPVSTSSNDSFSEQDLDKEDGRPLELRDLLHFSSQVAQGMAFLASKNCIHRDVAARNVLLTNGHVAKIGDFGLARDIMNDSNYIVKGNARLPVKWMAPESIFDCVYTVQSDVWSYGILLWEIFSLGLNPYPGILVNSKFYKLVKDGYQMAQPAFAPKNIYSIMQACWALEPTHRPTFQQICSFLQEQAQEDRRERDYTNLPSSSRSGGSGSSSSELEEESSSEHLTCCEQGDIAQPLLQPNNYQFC
Sequence of Vascular endothelial growth factor receptor 2 (P35968 whole entry, the tested form may be a part): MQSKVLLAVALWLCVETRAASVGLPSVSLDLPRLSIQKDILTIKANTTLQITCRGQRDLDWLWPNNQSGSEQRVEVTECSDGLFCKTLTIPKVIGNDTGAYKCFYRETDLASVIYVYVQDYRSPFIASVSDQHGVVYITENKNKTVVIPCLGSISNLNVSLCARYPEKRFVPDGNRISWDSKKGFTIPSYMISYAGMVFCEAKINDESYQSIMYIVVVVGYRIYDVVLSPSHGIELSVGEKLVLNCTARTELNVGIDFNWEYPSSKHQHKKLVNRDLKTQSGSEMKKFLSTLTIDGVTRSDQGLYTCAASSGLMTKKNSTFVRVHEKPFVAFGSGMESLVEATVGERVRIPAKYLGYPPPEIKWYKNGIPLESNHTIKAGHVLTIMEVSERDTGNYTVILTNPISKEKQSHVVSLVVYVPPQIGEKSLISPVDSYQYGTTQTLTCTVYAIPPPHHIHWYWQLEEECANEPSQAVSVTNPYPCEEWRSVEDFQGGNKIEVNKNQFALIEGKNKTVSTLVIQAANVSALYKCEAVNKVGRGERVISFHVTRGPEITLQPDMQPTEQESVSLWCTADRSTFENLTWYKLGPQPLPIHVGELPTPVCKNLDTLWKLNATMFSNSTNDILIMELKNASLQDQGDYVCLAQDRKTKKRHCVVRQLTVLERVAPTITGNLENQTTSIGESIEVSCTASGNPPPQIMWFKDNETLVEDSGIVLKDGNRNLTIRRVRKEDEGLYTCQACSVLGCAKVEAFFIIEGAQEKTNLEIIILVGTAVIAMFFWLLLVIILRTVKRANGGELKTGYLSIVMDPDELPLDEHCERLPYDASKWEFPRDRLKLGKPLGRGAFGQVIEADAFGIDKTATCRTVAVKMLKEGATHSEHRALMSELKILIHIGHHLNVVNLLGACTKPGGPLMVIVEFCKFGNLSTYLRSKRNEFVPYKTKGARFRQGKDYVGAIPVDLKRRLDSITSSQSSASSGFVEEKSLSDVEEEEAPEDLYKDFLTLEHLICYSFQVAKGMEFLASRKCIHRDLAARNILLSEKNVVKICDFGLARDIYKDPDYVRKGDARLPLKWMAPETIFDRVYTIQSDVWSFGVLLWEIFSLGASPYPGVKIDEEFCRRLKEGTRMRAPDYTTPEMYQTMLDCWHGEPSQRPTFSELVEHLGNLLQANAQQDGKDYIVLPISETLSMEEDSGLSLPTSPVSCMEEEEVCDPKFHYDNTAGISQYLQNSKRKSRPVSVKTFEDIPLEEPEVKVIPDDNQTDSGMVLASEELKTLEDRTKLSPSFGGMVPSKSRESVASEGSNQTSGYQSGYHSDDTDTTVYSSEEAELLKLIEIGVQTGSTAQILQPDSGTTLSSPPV

For the molecule `CC(C)(C)c1cc(NC(=O)Cc2ccc(-n3c4c(c5ncnc(N)c53)CCC4)cc2)n(-c2ccccc2)n1`, the IC50 in assay [1] and in assay [2] was less than 10 nM in each case.

`Nc1ncnc2c3c(n(-c4ccc(CC(=O)Nc5nc(C(F)(F)F)cs5)cc4)c12)CCC3`: the 50% inhibitory concentration (IC50) (commonly the midpoint of a concentration-inhibition curve) in assay [1] is 10 to 200 nM; in assay [2], greater than 200 nM.

For the molecule `COc1cc(-n2c3c(c4ncnc(N)c42)CCC3)ccc1CC(=O)Nc1ccnc(C(F)(F)F)c1`, the figures for the half-inhibitory concentration (IC50) in assay [1] and in assay [2] were less than 10 nM and greater than 200 nM, respectively.

In the case of `COc1cc(-n2c3c(c4ncnc(N)c42)CCC3)ccc1CC(=O)Nc1ccc(Cl)c(Cl)c1`, the values for the IC50 in assay [1] and in assay [2] were less than 10 nM and greater than 200 nM, respectively.

`Nc1ncnc2c3c(n(-c4ccc(CC(=O)Nc5ccc(C(F)(F)F)nn5)cc4)c12)CCC3`: the half-maximal inhibitory concentration (IC50) in assay [1] was 10 to 200 nM; in assay [2] it was greater than 200 nM.

Turning to `COc1ccc(NC(=O)Cc2ccc(-n3c4c(c5ncnc(N)c53)CCC4)cc2)cc1F`, the 50% inhibitory concentration (IC50) in assay [1] is less than 10 nM; in assay [2], greater than 200 nM.

As to `Nc1ncnc2c3c(n(-c4ccc(CC(=O)N5CCOc6ccccc65)cc4)c12)CCC3`, the half-maximal inhibitory concentration (IC50) was less than 10 nM in assay [1] and greater than 200 nM in assay [2].

Take `Nc1ncnc2c3c(n(-c4ccc(CC(=O)Nc5nc(C(F)(F)F)co5)cc4)c12)CCC3`: the IC50 in assay [1] was 10 to 200 nM; in assay [2], greater than 200 nM.

With `Nc1ncnc2c3c(n(-c4ccc(CC(=O)Nc5ccc(C(F)(F)F)cn5)cc4)c12)COC3`, the IC50 was 10 to 200 nM in assay [1] and greater than 200 nM in assay [2].

As to `COc1ccc(NC(=O)Cc2ccc(-n3c4c(c5ncnc(N)c53)CCC4)cc2OC)cc1F`, the half-maximal inhibitory concentration (IC50) is less than 10 nM in assay [1] and greater than 200 nM in assay [2].

Regarding `COc1cc(-n2c3c(c4ncnc(N)c42)CCC3)ccc1CC(=O)Nc1ccc(OC(F)(F)F)cc1`, the IC50 in assay [1] was less than 10 nM; in assay [2], greater than 200 nM.

As to `Nc1ncnc2c3c(n(-c4ccc(CC(=O)NC5CCOCC5)cc4)c12)CCC3`, the 50% inhibitory concentration (IC50) in assay [1] and in assay [2] was greater than 200 nM in each case.

For the molecule `COc1cc(-n2c3c(c4ncnc(N)c42)CCC3)ccc1CC(=O)Nc1ccc(Cl)c(C(F)(F)F)c1`, the IC50 in assay [1] is less than 10 nM; in assay [2], greater than 200 nM.

Regarding `COc1cc(-n2c3c(c4ncnc(N)c42)CCC3)ccc1CC(=O)Nc1ccc(OC)c(C(F)(F)F)c1`, the results for the half-inhibitory concentration (IC50) in assay [1] and in assay [2] were less than 10 nM and greater than 200 nM, respectively.

For `COc1cc(-n2c3c(c4ncnc(N)c42)CCC3)ccc1CC(=O)Nc1cc(C(F)(F)F)ccc1F`, the IC50 in assay [1] was less than 10 nM; in assay [2] it was greater than 200 nM.

Values taken from ChEMBL document CHEMBL4418299, “Compounds useful as csf1 modulators” (2016).
